Experiments:
TXNRD1 = experiment: RT-qPCR PCR array mQPA-8-Nrf2, TXNRD1 expression in NHEK; assay type: cell-based, human
Method: (§1) In the present study, the effects of compound L-Ergothioneine were investigated in normal human epidermal keratinocytes (NHEK) under basal or UV-irradiated conditions. More specifically, the effects of this compound were evaluated using RT-qPCR technology. Extracted mRNA was analyzed using a PCR array (“mQPA-8-Nrf2”) for the analysis of 8 target genes (including 1 housekeeping gene) selected for their role in Nrf2 pathway. Prior to this assay, a preliminary cytotoxicity assay was performed on compound L-Ergothioneine and Resveratrol (reference in basal condition) using a standard WST-8 reduction assay, in order to determine the concentrations to be tested in this study.
(§2) Cell type: Normal human epidermal keratinocytes (NHEK) used at the 3rd passage. Culture conditions: 37° C., 5% CO2. Culture medium: Keratinocyte-SFM optimized for the assay, supplemented with Epidermal Growth Factor Pituitary extract. Assay medium: Keratinocyte-SFM optimized for the assay. Test compound: L-Ergothioneine in ultrapure water. Test concentrations: 0.5, 3 and 30 μM. Reference: Resveratrol. Test concentration: 20 μM.
(§3) Keratinocytes were seeded in 24-well plates and cultured for 24 hours in culture medium and in assay medium for a further 24 hours. The medium was then replaced by assay medium containing or not (control) the compound or Resveratrol and cells were pre-incubated for 24 hours.
(§4) After pre-incubation, the medium was then removed and replaced by a PBS solution. For basal conditions, the plate was kept in the dark during the irradiation time. For irradiated conditions, the cells were irradiated with UVB−275 mJ/cm^2 (+UVA−2 J/cm^2) using a SOL500 Sun Simulator equipped with an H2 filter (Dr. Hönle, AG). After irradiation time, the treatments were renewed, and the cells were incubated for 24 hours. All experimental conditions were performed in n=3. At the end of incubation, the cells were washed in phosphate buffered saline (PBS) solution and immediately frozen at −80° C.
(§5) The expression of markers was analyzed using RT-qPCR method on total RNA extracted from the cell monolayers of each experimental condition (before RNA extraction, the replicates of the same experimental condition were pooled). The analysis of transcripts was performed in n=2 using a PCR array dedicated to research and adapted to ‘screening’ format and targeting 8 genes selected for their role in Nrf2 pathway.
(§6) Total RNA was extracted from each sample using TriPure Isolation Reagent® according to the supplier's instructions. The amount and quality of RNA were evaluated using capillary electrophoresis (Bioanalyzer 2100, Agilent technologies). The complementary DNA (cDNA) was synthetized by reverse transcription of total RNA in presence of oligo(dT) and «Transcriptor Reverse Transcriptase» (Roche Molecular System Inc.). The cDNA quantities were then adjusted before PCR.
(§7) The PCR (Polymerase Chain Reaction) were performed using the «LightCycler®» system (Roche Molecular System Inc.) according to the supplier's instructions. The reaction mix (10 μl final) was prepared as follows: 2.5 μl of cDNA; primers (forward and reverse); reagent mix (Roche) containing taq DNA polymerase, SYBR Green I and MgCl2.
(§8) The incorporation of fluorescence in amplified DNA was continuously measured during the PCR cycles. […] The value selected for RE calculations is the “output point” (Ct) of the fluorescence curve. For a considered marker, the highest is the cycle number; the lowest is the mRNA quantity. The RE value was calculated with the formula: (½^number of cycles)×10^6. The PCR array used in the present study included 1 reference gene (RPS28).

NQO1 = experiment: RT-qPCR PCR array mQPA-8-Nrf2, NQO1 expression in NHEK; assay type: cell-based, human
Method: as §1, §2, §3, §4, §5, §6, §7, §8

TXN = experiment: RT-qPCR PCR array mQPA-8-Nrf2, TXN expression in NHEK; assay type: cell-based, human
Method: as §1, §2, §3, §4, §5, §6, §7, §8

GCLM = experiment: RT-qPCR PCR array mQPA-8-Nrf2, GCLM expression in NHEK; assay type: cell-based, human
Method: as §1, §2, §3, §4, §5, §6, §7, §8

Nrf2 pathway = experiment: Gene expression profile of keratinocytes (mQPA-8-Nrf2 array as a whole); assay type: cell-based, human
Method: as §1, §2, §3, §4, §5

[1] = Preliminary cytotoxicity assay (WST-8 reduction, viability and morphological observations); assay type: cell-based, human; conditions: human
Method: as §1, §2
(§9) Cell type: NHEK in assay medium. Incubation time: 24 hours.
(§10) After treatment, the cells were incubated with WST-8 (highly water-soluble tetrazolium salt) reduced in a water-soluble orange colored product (formazan) by succinate dehydrogenase (mitochondrial enzyme). This transformation is proportional to the number of living cells and their metabolic activity. The optical density (OD) of the extracts at 450 nm was recorded with a spectrometer (VERSAmax, Molecular Devices).

[2] = tested on: normal human epidermal keratinocytes (NHEK); experiment: as above; assay type: cell-based; conditions: human, 24 h
Method: as §1, §2, §9, §10

GCLC = experiment: RT-qPCR PCR array mQPA-8-Nrf2, GCLC expression in NHEK; assay type: cell-based, human
Method: as §1, §2, §3, §4, §5, §6, §7, §8

HMOX1 = experiment: RT-qPCR PCR array mQPA-8-Nrf2, HMOX1 expression in NHEK; assay type: cell-based, human
Method: as §1, §2, §3, §4, §5, §6, §7, §8

RPS28 = experiment: RT-qPCR PCR array mQPA-8-Nrf2, housekeeping gene RPS28; assay type: cell-based, human
Method: as §1, §2, §3, §4, §5, §6, §7, §8

MT1G = experiment: RT-qPCR PCR array mQPA-8-Nrf2, MT1G expression in NHEK; assay type: cell-based, human
Method: as §1, §2, §3, §4, §5, §6, §7, §8

total GSH [3] = experiment: Example 2: oral L-ergothioneine on plasma glutathione in healthy humans; assay type: in vivo, human; conditions: Example 2, 200 mg orally once daily, single subject
total GSH [4] = experiment: Example 3: oral L-ergothioneine 5, 15, 30 mg/day on plasma glutathione in healthy humans; assay type: in vivo, human
Source text: A Baseline will be established looking at Total and Percent Reduced Glutathione. These same values will be measured at the end of the four weeks. Subjects will be contacted once a week while in the study for an assessment of compliance with intervention.
Study Population: Male and female subjects 25-75 years of age Number of Subjects: 5, assigned as follows: 1 subject will receive the GSH administered orally once weekly for 4 weeks; 1 subject will receive S-acetyl-glutathione supplemented orally once daily for 4 weeks; 3 subjects will receive 5, 15, 30 mg L-ergothioneine supplemented orally once daily for 4 weeks, respectively.
• 1. Individuals must be between 25-70 years of age with no known medical conditions that, in the investigator's opinion, may interfere with study participation. • 2. Subjects must present with mild to moderate signs oxidative stress or inflammation. • 3. Willingness to cooperate and participate by following Study requirements. • 4. Individuals must sign informed consent, photo release consent and confidentiality agreement.
• 1. […] Individuals currently taking certain medications or any dietary supplements, which in the opinion of the investigator might interfere with the study. This would include but not be limited to routine high dosage use of anti-inflammatory drugs (aspirin, ibuprofen, corticosteroids) immunosuppressive drugs or antihistamine medications), and insulin, anti-hypertensive drugs, and especially antioxidants. • 3. Individuals with uncontrolled metabolic diseases such as diabetes (Type I and II), hypertension, hyperthyroidism or hypothyroidism, severe chronic asthma, immunological disorders such as HIV positive, AIDS and systemic lupus erythematosus or mastectomy for cancer involving removal of lymph nodes. • 4. Women known to be pregnant, nursing or planning to become pregnant. • 5. Individuals participating in other clinical studies evaluating antioxidants or anti-inflammatory interventions.

[5] = UV-irradiated (UVB-275 mJ/cm^2 +UVA-2 J/cm^2), 0.5 μM
[6] = UV-irradiated (UVB-275 mJ/cm^2 +UVA-2 J/cm^2), 3 μM
[7] = UV-irradiated (UVB-275 mJ/cm^2 +UVA-2 J/cm^2), 30 μM

C[N+](C)(C)[C@@H](Cc1c[nH]c(=S)[nH]1)C(=O)[O-] [L-Ergothioneine, (2S)-3-(2-thioxo-2,3-dihydro-1H-imidazol-4-yl)-2-(trimethylammonio)-propanoate]
TXNRD1 % Control RPS28 (TXNRD1; [5]): 99 % Control | TXNRD1 % Control RPS28 (TXNRD1; [6]): 97 % Control | TXNRD1 % Control RPS28 (TXNRD1; [7]): 120 % Control | TXNRD1 % Control RPS28 (TXNRD1; basal conditions, 0.5 μM): 75 % Control | TXNRD1 % Control RPS28 (TXNRD1; basal conditions, 3 μM): 72 % Control | TXNRD1 % Control RPS28 (TXNRD1; basal conditions, 30 μM): 82 % Control | NQO1 % Control RPS28 (NQO1; [5]): 118 % Control | NQO1 % Control RPS28 (NQO1; [6]): 136 % Control | NQO1 % Control RPS28 (NQO1; [7]): 207 % Control | NQO1 % Control RPS28 (NQO1; basal conditions, 0.5 μM): 127 % Control | NQO1 % Control RPS28 (NQO1; basal conditions, 3 μM): 131 % Control | NQO1 % Control RPS28 (NQO1; basal conditions, 30 μM): 155 % Control | TXN % Control RPS28 (TXN; [5]): 89 % Control | TXN % Control RPS28 (TXN; [6]): 99 % Control | TXN % Control RPS28 (TXN; [7]): 101 % Control | TXN % Control RPS28 (TXN; basal conditions, 0.5 μM): 87 % Control | TXN % Control RPS28 (TXN; basal conditions, 3 μM): 83 % Control | TXN % Control RPS28 (TXN; basal conditions, 30 μM): 98 % Control | GCLM % Control RPS28 (GCLM; [5]): 76 % Control | GCLM % Control RPS28 (GCLM; [6]): 86 % Control | GCLM % Control RPS28 (GCLM; [7]): 86 % Control | GCLM % Control RPS28 (GCLM; basal conditions, 0.5 μM): 95 % Control | GCLM % Control RPS28 (GCLM; basal conditions, 3 μM): 97 % Control | GCLM % Control RPS28 (GCLM; basal conditions, 30 μM): 98 % Control | Modulation of the gene expression profile of irradiated keratinocytes (Nrf2 pathway; UVB (+UVA) irradiated, tested at 0.5, 3 and 30 μM): did not induce major modulations | Effect on gene expression, basal keratinocytes (Nrf2 pathway; basal, lowest tested concentrations): no effect was observed | Modulation of the gene expression profile of basal keratinocytes (Nrf2 pathway; basal, tested at 0.5, 3 and 30 μM): did not induce major modulations | Effect on gene expression, irradiated keratinocytes (Nrf2 pathway; irradiated, lowest tested concentrations): no effect was observed | viability at 24 h, 2.2 µM ([1]; Viability (%)): 97% | viability at 24 h, 6.7 µM ([1]; Viability (%)): 98% | viability at 24 h, 20 µM ([1]; Viability (%)): 99% | viability at 24 h, 60 µM ([1]; Viability (%)): 100% | viability at 24 h, 180 µM ([1]; Viability (%)): 99% | viability at 24 h, 540 µM ([1]; Viability (%)): 100% | viability at 24 h, 1620 µM ([1]; Viability (%)): 89% | viability at 24 h, 4860 µM ([1]; Viability (%)): 82% | viability at 24 h, 2.2 µM ([1]; Viability Mean (%)): 100% | viability at 24 h, 6.7 µM ([1]; Viability Mean (%)): 99% | viability at 24 h, 20 µM ([1]; Viability Mean (%)): 99% | viability at 24 h, 60 µM ([1]; Viability Mean (%)): 99% | viability at 24 h, 180 µM ([1]; Viability Mean (%)): 97% | viability at 24 h, 540 µM ([1]; Viability Mean (%)): 66% | viability at 24 h, 1620 µM ([1]; Viability Mean (%)): 92% | viability at 24 h, 4860 µM ([1]; Viability Mean (%)): 83% | Viability (%) ([2]; 2.2 µM): 105% | Viability (%) ([2]; 6.7 µM): 101% | Viability (%) ([2]; 20 µM): 102% | Viability (%) ([2]; 180 µM): 95% | Viability (%) ([2]; 4860 µM): 79% | GCLC % Control RPS28 (GCLC; [5]): 106 % Control | GCLC % Control RPS28 (GCLC; [6]): 126 % Control | GCLC % Control RPS28 (GCLC; [7]): 181 % Control | GCLC % Control RPS28 (GCLC; basal conditions, 0.5 μM): 111 % Control | GCLC % Control RPS28 (GCLC; basal conditions, 3 μM): 118 % Control | GCLC % Control RPS28 (GCLC; basal conditions, 30 μM): 140 % Control | HMOX1 % Control RPS28 (HMOX1; [5]): 104 % Control | HMOX1 % Control RPS28 (HMOX1; [6]): 109 % Control | HMOX1 % Control RPS28 (HMOX1; [7]): 141 % Control | HMOX1 % Control RPS28 (HMOX1; basal conditions, 0.5 μM): 86 % Control | HMOX1 % Control RPS28 (HMOX1; basal conditions, 3 μM): 91 % Control | HMOX1 % Control RPS28 (HMOX1; basal conditions, 30 μM): 98 % Control | RPS28 % Control RPS28 (RPS28; [5]): 100 % Control | RPS28 % Control RPS28 (RPS28; [6]): 100 % Control | RPS28 % Control RPS28 (RPS28; [7]): 100 % Control | RPS28 % Control RPS28 (RPS28; basal conditions, 0.5 μM): 100 % Control | RPS28 % Control RPS28 (RPS28; basal conditions, 3 μM): 100 % Control | RPS28 % Control RPS28 (RPS28; basal conditions, 30 μM): 100 % Control | MT1G % Control RPS28 (MT1G; [5]): 81 % Control | MT1G % Control RPS28 (MT1G; [6]): 94 % Control | MT1G % Control RPS28 (MT1G; [7]): 102 % Control | MT1G % Control RPS28 (MT1G; basal conditions, 0.5 μM): 113 % Control | MT1G % Control RPS28 (MT1G; basal conditions, 3 μM): 99 % Control | MT1G % Control RPS28 (MT1G; basal conditions, 30 μM): 115 % Control

CC(=O)SC[C@H](NC(=O)CC[C@H](N)C(=O)O)C(=O)NCC(=O)O [SAG, S-acetyl-glutathione]
% change from baseline in total GSH (total GSH [3]): −25% | Total GSH at Day 30 (total GSH [3]; baseline 727 μM): 547 µM | Total GSH at Day 30 (total GSH [4]; Example 3, 200 mg orally once daily, single subject, baseline 733 μM): 461 µM | Total GSH at Day 30 (total GSH [4]; Example 3, second sentence on a single subject with comparator intervention (see doubts)): 503 µM | % change from baseline in total GSH (total GSH [4]; Example 3, single subject): −37%
